From the NIST ThermoML archive (doi:10.1021/acs.jced.7b00773)
Numbers after ± are expanded uncertainties.

Details: Liquid; for viscosity: Concentric cylinders viscometry

CCn1cc[n+](C)c1.N#C[B-](C#N)(C#N)C#N [1-ethyl-3-methylimidazolium tetracyanoborate]
viscosity (293.15 K, 100 kPa): 22.11 ± 1 mPa·s
mass density (293.15 K, 100 kPa, Vibrating tube method): 1040.5 ± 2.3 kg/m3
viscosity (303.15 K, 100 kPa): 15.38 ± 0.71 mPa·s
mass density (303.15 K, 100 kPa, Vibrating tube method): 1032.7 ± 2.3 kg/m3
mass density (311.8 K, 10000 kPa, Bellows volumetry): 1031.2 ± 2.6 kg/m3
mass density (311.8 K, 20000 kPa, Bellows volumetry): 1036.6 ± 2.6 kg/m3
mass density (311.8 K, 30000 kPa, Bellows volumetry): 1041.7 ± 2.6 kg/m3
mass density (311.8 K, 40000 kPa, Bellows volumetry): 1046.6 ± 2.6 kg/m3
mass density (311.8 K, 50000 kPa, Bellows volumetry): 1051.3 ± 2.6 kg/m3
mass density (311.8 K, 60000 kPa, Bellows volumetry): 1055.9 ± 2.6 kg/m3
mass density (311.8 K, 70000 kPa, Bellows volumetry): 1060.3 ± 2.6 kg/m3
mass density (311.8 K, 80000 kPa, Bellows volumetry): 1064.6 ± 2.6 kg/m3
mass density (311.8 K, 90000 kPa, Bellows volumetry): 1068.7 ± 2.6 kg/m3
mass density (311.8 K, 100000 kPa, Bellows volumetry): 1072.8 ± 2.6 kg/m3
mass density (311.8 K, 110000 kPa, Bellows volumetry): 1076.8 ± 2.6 kg/m3
mass density (311.8 K, 120000 kPa, Bellows volumetry): 1080.6 ± 2.6 kg/m3
mass density (311.8 K, 130000 kPa, Bellows volumetry): 1084.3 ± 2.6 kg/m3
mass density (311.8 K, 140000 kPa, Bellows volumetry): 1088 ± 2.6 kg/m3
mass density (311.8 K, 150000 kPa, Bellows volumetry): 1091.6 ± 2.6 kg/m3
mass density (311.8 K, 160000 kPa, Bellows volumetry): 1095.1 ± 2.6 kg/m3
mass density (311.8 K, 170000 kPa, Bellows volumetry): 1098.5 ± 2.6 kg/m3
mass density (311.8 K, 180000 kPa, Bellows volumetry): 1101.9 ± 2.6 kg/m3
mass density (311.8 K, 190000 kPa, Bellows volumetry): 1105.1 ± 2.6 kg/m3
mass density (311.8 K, 200000 kPa, Bellows volumetry): 1108.5 ± 2.6 kg/m3
viscosity (313.15 K, 100 kPa): 11.23 ± 0.52 mPa·s
mass density (313.15 K, 100 kPa, Vibrating tube method): 1024.9 ± 2.3 kg/m3
viscosity (323.15 K, 100 kPa): 8.55 ± 0.4 mPa·s
mass density (323.15 K, 100 kPa, Vibrating tube method): 1017.2 ± 2.3 kg/m3
mass density (331.7 K, 10000 kPa, Bellows volumetry): 1016.3 ± 2.6 kg/m3
mass density (331.7 K, 20000 kPa, Bellows volumetry): 1021.9 ± 2.6 kg/m3
mass density (331.7 K, 30000 kPa, Bellows volumetry): 1027.4 ± 2.6 kg/m3
mass density (331.7 K, 40000 kPa, Bellows volumetry): 1032.6 ± 2.6 kg/m3
mass density (331.7 K, 50000 kPa, Bellows volumetry): 1037.5 ± 2.6 kg/m3
mass density (331.7 K, 60000 kPa, Bellows volumetry): 1042.3 ± 2.6 kg/m3
mass density (331.7 K, 70000 kPa, Bellows volumetry): 1046.9 ± 2.6 kg/m3
mass density (331.7 K, 80000 kPa, Bellows volumetry): 1051.4 ± 2.6 kg/m3
mass density (331.7 K, 90000 kPa, Bellows volumetry): 1055.7 ± 2.6 kg/m3
mass density (331.7 K, 100000 kPa, Bellows volumetry): 1059.9 ± 2.6 kg/m3
mass density (331.7 K, 110000 kPa, Bellows volumetry): 1064 ± 2.6 kg/m3
mass density (331.7 K, 120000 kPa, Bellows volumetry): 1068 ± 2.6 kg/m3
mass density (331.7 K, 130000 kPa, Bellows volumetry): 1071.9 ± 2.6 kg/m3
mass density (331.7 K, 140000 kPa, Bellows volumetry): 1075.6 ± 2.6 kg/m3
mass density (331.7 K, 150000 kPa, Bellows volumetry): 1079.2 ± 2.6 kg/m3
mass density (331.7 K, 160000 kPa, Bellows volumetry): 1082.9 ± 2.6 kg/m3
mass density (331.7 K, 170000 kPa, Bellows volumetry): 1086.4 ± 2.6 kg/m3
mass density (331.7 K, 180000 kPa, Bellows volumetry): 1089.9 ± 2.6 kg/m3
mass density (331.7 K, 190000 kPa, Bellows volumetry): 1093.3 ± 2.6 kg/m3
mass density (331.7 K, 200000 kPa, Bellows volumetry): 1096.7 ± 2.6 kg/m3
viscosity (333.15 K, 100 kPa): 6.751 ± 0.31 mPa·s
mass density (333.15 K, 100 kPa, Vibrating tube method): 1009.6 ± 2.3 kg/m3
viscosity (343.15 K, 100 kPa): 5.473 ± 0.25 mPa·s
mass density (343.15 K, 100 kPa, Vibrating tube method): 1002 ± 2.3 kg/m3
mass density (351.8 K, 10000 kPa, Bellows volumetry): 1001.6 ± 2.6 kg/m3
mass density (351.8 K, 20000 kPa, Bellows volumetry): 1007.5 ± 2.6 kg/m3
mass density (351.8 K, 30000 kPa, Bellows volumetry): 1013.3 ± 2.6 kg/m3
mass density (351.8 K, 40000 kPa, Bellows volumetry): 1018.7 ± 2.6 kg/m3
mass density (351.8 K, 50000 kPa, Bellows volumetry): 1024 ± 2.6 kg/m3
mass density (351.8 K, 60000 kPa, Bellows volumetry): 1029 ± 2.6 kg/m3
mass density (351.8 K, 70000 kPa, Bellows volumetry): 1033.8 ± 2.6 kg/m3
mass density (351.8 K, 80000 kPa, Bellows volumetry): 1038.5 ± 2.6 kg/m3
mass density (351.8 K, 90000 kPa, Bellows volumetry): 1043 ± 2.6 kg/m3
mass density (351.8 K, 100000 kPa, Bellows volumetry): 1047.3 ± 2.6 kg/m3
mass density (351.8 K, 110000 kPa, Bellows volumetry): 1051.5 ± 2.6 kg/m3
mass density (351.8 K, 120000 kPa, Bellows volumetry): 1055.7 ± 2.6 kg/m3
mass density (351.8 K, 130000 kPa, Bellows volumetry): 1059.7 ± 2.6 kg/m3
mass density (351.8 K, 140000 kPa, Bellows volumetry): 1063.6 ± 2.6 kg/m3
mass density (351.8 K, 150000 kPa, Bellows volumetry): 1067.4 ± 2.6 kg/m3
mass density (351.8 K, 160000 kPa, Bellows volumetry): 1071.2 ± 2.6 kg/m3
mass density (351.8 K, 170000 kPa, Bellows volumetry): 1074.8 ± 2.6 kg/m3
mass density (351.8 K, 180000 kPa, Bellows volumetry): 1078.4 ± 2.6 kg/m3
mass density (351.8 K, 190000 kPa, Bellows volumetry): 1081.9 ± 2.6 kg/m3
mass density (351.8 K, 200000 kPa, Bellows volumetry): 1085.3 ± 2.6 kg/m3
viscosity (353.15 K, 100 kPa): 4.537 ± 0.21 mPa·s
mass density (353.15 K, 100 kPa, Vibrating tube method): 994.8 ± 2.3 kg/m3
viscosity (363.15 K, 100 kPa): 3.833 ± 0.18 mPa·s
mass density (363.15 K, 100 kPa, Vibrating tube method): 987.5 ± 2.3 kg/m3
mass density (372 K, 10000 kPa, Bellows volumetry): 987.2 ± 2.6 kg/m3
mass density (372 K, 20000 kPa, Bellows volumetry): 993.6 ± 2.6 kg/m3
mass density (372 K, 30000 kPa, Bellows volumetry): 999.6 ± 2.6 kg/m3
mass density (372 K, 40000 kPa, Bellows volumetry): 1005.4 ± 2.6 kg/m3
mass density (372 K, 50000 kPa, Bellows volumetry): 1010.8 ± 2.6 kg/m3
mass density (372 K, 60000 kPa, Bellows volumetry): 1016 ± 2.6 kg/m3
mass density (372 K, 70000 kPa, Bellows volumetry): 1021 ± 2.6 kg/m3
mass density (372 K, 80000 kPa, Bellows volumetry): 1025.9 ± 2.6 kg/m3
mass density (372 K, 90000 kPa, Bellows volumetry): 1030.5 ± 2.6 kg/m3
mass density (372 K, 100000 kPa, Bellows volumetry): 1035.1 ± 2.6 kg/m3
mass density (372 K, 110000 kPa, Bellows volumetry): 1039.5 ± 2.6 kg/m3
mass density (372 K, 120000 kPa, Bellows volumetry): 1043.8 ± 2.6 kg/m3
mass density (372 K, 130000 kPa, Bellows volumetry): 1048 ± 2.6 kg/m3
mass density (372 K, 140000 kPa, Bellows volumetry): 1052.1 ± 2.6 kg/m3
mass density (372 K, 150000 kPa, Bellows volumetry): 1055.9 ± 2.6 kg/m3
mass density (372 K, 160000 kPa, Bellows volumetry): 1059.8 ± 2.6 kg/m3
mass density (372 K, 170000 kPa, Bellows volumetry): 1063.5 ± 2.6 kg/m3
mass density (372 K, 180000 kPa, Bellows volumetry): 1067.2 ± 2.6 kg/m3
mass density (372 K, 190000 kPa, Bellows volumetry): 1070.9 ± 2.6 kg/m3
mass density (372 K, 200000 kPa, Bellows volumetry): 1074.4 ± 2.6 kg/m3
viscosity (373.15 K, 100 kPa): 3.289 ± 0.15 mPa·s
mass density (373.15 K, 100 kPa, Vibrating tube method): 980.3 ± 2.3 kg/m3
mass density (392.1 K, 10000 kPa, Bellows volumetry): 973 ± 2.6 kg/m3
mass density (392.1 K, 20000 kPa, Bellows volumetry): 979.8 ± 2.6 kg/m3
mass density (392.1 K, 30000 kPa, Bellows volumetry): 986.2 ± 2.6 kg/m3
mass density (392.1 K, 40000 kPa, Bellows volumetry): 992.2 ± 2.6 kg/m3
mass density (392.1 K, 50000 kPa, Bellows volumetry): 998 ± 2.6 kg/m3
mass density (392.1 K, 60000 kPa, Bellows volumetry): 1003.4 ± 2.6 kg/m3
mass density (392.1 K, 70000 kPa, Bellows volumetry): 1008.6 ± 2.6 kg/m3
mass density (392.1 K, 80000 kPa, Bellows volumetry): 1013.8 ± 2.6 kg/m3
mass density (392.1 K, 90000 kPa, Bellows volumetry): 1018.6 ± 2.6 kg/m3
mass density (392.1 K, 100000 kPa, Bellows volumetry): 1023.3 ± 2.6 kg/m3
mass density (392.1 K, 110000 kPa, Bellows volumetry): 1028 ± 2.6 kg/m3
mass density (392.1 K, 120000 kPa, Bellows volumetry): 1032.4 ± 2.6 kg/m3
mass density (392.1 K, 130000 kPa, Bellows volumetry): 1036.6 ± 2.6 kg/m3
mass density (392.1 K, 140000 kPa, Bellows volumetry): 1040.8 ± 2.6 kg/m3
mass density (392.1 K, 150000 kPa, Bellows volumetry): 1044.9 ± 2.6 kg/m3
mass density (392.1 K, 160000 kPa, Bellows volumetry): 1048.8 ± 2.6 kg/m3
mass density (392.1 K, 170000 kPa, Bellows volumetry): 1052.8 ± 2.6 kg/m3
mass density (392.1 K, 180000 kPa, Bellows volumetry): 1056.5 ± 2.6 kg/m3
mass density (392.1 K, 190000 kPa, Bellows volumetry): 1060.2 ± 2.6 kg/m3
mass density (392.1 K, 200000 kPa, Bellows volumetry): 1063.9 ± 2.6 kg/m3
mass density (412.2 K, 10000 kPa, Bellows volumetry): 959.2 ± 2.6 kg/m3
mass density (412.2 K, 20000 kPa, Bellows volumetry): 966.3 ± 2.6 kg/m3
mass density (412.2 K, 30000 kPa, Bellows volumetry): 973 ± 2.6 kg/m3
mass density (412.2 K, 40000 kPa, Bellows volumetry): 979.4 ± 2.6 kg/m3
mass density (412.2 K, 50000 kPa, Bellows volumetry): 985.4 ± 2.6 kg/m3
mass density (412.2 K, 60000 kPa, Bellows volumetry): 991.1 ± 2.6 kg/m3
mass density (412.2 K, 70000 kPa, Bellows volumetry): 996.6 ± 2.6 kg/m3
mass density (412.2 K, 80000 kPa, Bellows volumetry): 1001.9 ± 2.6 kg/m3
mass density (412.2 K, 90000 kPa, Bellows volumetry): 1007 ± 2.6 kg/m3
mass density (412.2 K, 100000 kPa, Bellows volumetry): 1011.9 ± 2.6 kg/m3
mass density (412.2 K, 110000 kPa, Bellows volumetry): 1016.6 ± 2.6 kg/m3
mass density (412.2 K, 120000 kPa, Bellows volumetry): 1021.2 ± 2.6 kg/m3
mass density (412.2 K, 130000 kPa, Bellows volumetry): 1025.7 ± 2.6 kg/m3
mass density (412.2 K, 140000 kPa, Bellows volumetry): 1030 ± 2.6 kg/m3
mass density (412.2 K, 150000 kPa, Bellows volumetry): 1034.1 ± 2.6 kg/m3
mass density (412.2 K, 160000 kPa, Bellows volumetry): 1038.2 ± 2.6 kg/m3
mass density (412.2 K, 170000 kPa, Bellows volumetry): 1042.2 ± 2.6 kg/m3
mass density (412.2 K, 180000 kPa, Bellows volumetry): 1046.1 ± 2.6 kg/m3
mass density (412.2 K, 190000 kPa, Bellows volumetry): 1049.9 ± 2.6 kg/m3
mass density (412.2 K, 200000 kPa, Bellows volumetry): 1053.6 ± 2.6 kg/m3
